From patent US20210198256A1, “COMPOUNDS FOR THE DEGRADATION OF BRD9 OR MTH1” (C4 Therapeutics, Inc., priority 2018, published 2021)

Test system: SMARTCAR-MTH1-wt-HiBiT (Jurkat.7 cells)
Experiment: HiBit Lytic Assay (HiBit DC50, MTH1 degraders of Table 2)
Format: cell-based, human
Conditions: Jurkat.7 SMARTCAR-MTH1-wt-HiBiT cells, compound treatment time 4 hr, 11-point half log dose response
Protocol: Example 3. HiBit Lytic Assay
• Compound is made at 10 mM, half log dilution, 11 points. • MDR plates can also be ordered from Frontier with same format. • 1. Barcode a 384LDV plate (384-well Low Dead Volume Microplate, Labcyte LP-0200) (Echo compatible) on the left side. • 2. Transfer 13.6 μL of 10 mM compound into column 1 of LDV plate (Labcyte). • 3. Fill column 2-11 and column 23 of MDR plate with 9.30 μL of DMSO. • 4. Serial dilute 3.16 fold from column 1 to 2 by transferring 4.30 μL from column 1 to column 2, and so on to column 11. *Change tip in every dilution to prevent compound carryover effect! • 5. Seal the plate with Plate Sealer, then store the MDR plate at room temperature for short term storage and in −20° C. for long term storage.
• Cells are treated with 30 nL of each compound at 10 mM, half log dilution, 11 points with final concentration of 1000 nM or 833 nM, half log dilution, 11 points, in duplicates. Final DMSO concentration is 0.1%. • 1. Barcode the plates made on the left side and label the plates with silver marker. • 2. Dispense with the following scheme: • a. 30 nL of compound into corresponding wells in cell plates via Echo550 with “MDR32_HiBiT16_30 nL”. Top concentration will be 1000 nM. • 3. Seal the plate with Plate Sealer.
• Cells are dispensed at density specified in Cell Line Table in 384-well microplate. • 1. Culture cells to between 50-80% of confluence in sterile culture flasks of appropriate size. • 2. For Adherent Cell Lines: • a. Aspirate off growth media in culture flask, and wash off the Phenol Red media with 5 mL of 1×PBS. • b. Add 5 mL of Trypsin to the cells, incubate at 37° C. for 5 minutes. • c. Add 5 mL of growth media to the trypsinzed cells, and resuspend. • 3. Remove 10 μL of cells, and resuspend the cells with 10 μL of Trypan Blue. Insert the solution to counting chamber slide, and count the cells via cell counter. • 4. Adjust the cell concentration to specified plating density, and strain the cells with cell strainer. • 5. Dispense the cells via E1-ClipTip™ Electronic Multichannel Pipettes or Multidrop™ Combi Reagent Dispenser with Standard tube dispensing cassette: • a. Prime the cassette with 10-20 mL of ddH2O. • b. Prime the cassette with 10-20 mL of cells. • c. Dispense the cells at low speed for 30 μL/well in Corning® 384 Well Low Flange Black Flat Bottom Polystyrene TC-Treated Microplate. • d. Wash the cassette with 10-20 mL of ddH2O, follow by 10-20 mL of 70% EtOH, then again with 10-20 mL of ddH2O. • 6. Incubate the plates at 37° C.×compound treatment time.
• 1. If not already, bring Nano-Glo® HiBiT Lytic Buffer to room temperature. • 2. Determine the amount of reagent needed. A volume of reagent equal to the volume of media in the well should be added (i.e. 30 μL of cells will need 30 μL of HiBiT Lytic reagent). • 3. Into a given volume of buffer, dilute the substrate 50-fold and the LgBiT protein 100-fold. For example, to make 10 ml of reagent, add the following: • 10 ml Nano-Glo® HiBiT Lytic Buffer • 200 μl Nano-Glo® HiBiT Lytic Substrate • 100 μl LgBiT Protein • The reagent should be reconstituted immediately before use. However, once reconstituted, it should take about 4 hours for the activity to decrease 10%. • 4. Cool down the cell plate to room temperature for 10-15 minutes without lid. • 5. Dispense the HiBiT Lytic Reagent via E1-ClipTip™ Electronic Multichannel Pipettes or Multidrop™ Combi Reagent Dispenser with Standard tube dispensing cassette: • a. Prime the cassette with 10-20 mL of ddH2O. • b. Prime the cassette with 10-20 mL of CTG 2.0. • c. Dispense the HiBiT Lytic Reagent at medium speed for 30 μL/well in cell plate to column 1-23 (column 24 will be used as plate background). • d. Wash the cassette with 10-20 mL of ddH2O, follow by 10-20 mL of 70% EtOH, then again with 10-20 mL of ddH2O. • 6. Incubate the cell plate at room temperature for 10 minutes without lid. • 7. […]

**Q.** `CNC(=O)c1cnc2cc(OC)c(-c3ccc(C(=O)NCCCCNC(=O)C(C)Nc4cccc5c4C(=O)N(C4CCC(=O)NC4=O)C5=O)nc3)cc2c1Nc1ccccc1` (stereo in doubt) [Compound 384, 6-(6-((4-((2S)-2-((2-(2,6-dioxopiperidin-3-yl)-1,3-dioxoisoindolin-4-yl)amino)propanamido)butyl)carbamoyl)pyridin-3-yl)-7-methoxy-N-methyl-4-(phenylamino)quinoline-3-carboxamide] was tested. Which DC50 did it give?
**A.** < 100 nM

**Q.** For `CNC(=O)c1cnc2ccc(-c3ccc(C(=O)NCCCC(=O)N4CCN(c5cccc6c5C(=O)N(C5CCC(=O)NC5=O)C6=O)CC4)cc3)cc2c1Nc1ccccc1` (stereo not drawn) [Compound 343, 4-anilino-6-[4-[[4-[4-[2-(2,6-dioxo-3-piperidyl)-1,3-dioxo-isoindolin-4-yl]piperazin-1-yl]-4-oxo-butyl]carbamoyl]phenyl]-N-methyl-quinoline-3-carboxamide], which DC50 is on record?
**A.** < 100 nM

**Q.** Which DC50 does the source give for `NC(=O)c1cnc2ccc(N3CCN(C(=O)CCCCCNC(=O)COc4cccc5c4C(=O)N(C4CCC(=O)NC4=O)C5=O)CC3)cc2c1Nc1ccccc1` (stereo not drawn) [Compound 310, 6-(4-(6-(2-((2-(2,6-dioxopiperidin-3-yl)-1,3-dioxoisoindolin-4-yl)oxy)acetamido)hexanoyl)piperazin-1-yl)-4-(phenylamino)quinoline-3-carboxamide] here?
**A.** < 1000 nM

**Q.** With `CNC(=O)c1cnc2ccc(C(=O)NCCCCCCCCCCCCNC(=O)COc3cccc4c3C(=O)N(C3CCC(=O)NC3=O)C4=O)cc2c1Nc1ccccc1` (stereo not drawn) [Compound 455, N6-(12-(2-((2-(2,6-dioxopiperidin-3-yl)-1,3-dioxoisoindolin-4-yl)oxy)acetamido)dodecyl)-N3-methyl-4-(phenylamino)quinoline-3,6-dicarboxamide] as the molecule, how does the DC50 read?
**A.** < 100 nM

**Q.** How did the DC50 turn out when `CNC(=O)c1cnc2cc(C(F)(F)F)c(-c3ccc(C(=O)NCCCCNC(=O)COc4cccc5c4C(=O)N(C4CCC(=O)NC4=O)C5=O)c(F)c3)cc2c1Nc1ccccc1` (stereo not drawn) [Compound 379, 6-(4-((4-(2-((2-(2,6-dioxopiperidin-3-yl)-1,3-dioxoisoindolin-4-yl)oxy)acetamido)butyl)carbamoyl)-3-fluorophenyl)-N-methyl-4-(phenylamino)-7-(trifluoromethyl)quinoline-3-carboxamide] was run?
**A.** < 100 nM

**Q.** With `CNc1c(C(=O)NC2CC2)cnc2cc(F)c(-c3ccc(C(=O)NCCCCCCCc4cnc5c(c4)CN(C4CCC(=O)NC4=O)C5=O)c(F)c3)cc12` (stereo not drawn) [Compound 401, N-cyclopropyl-6-[4-[7-[6-(2,6-dioxo-3-piperidyl)-7-oxo-5H-pyrrolo[3,4-b]pyridin-3-yl]heptylcarbamoyl]-3-fluoro-phenyl]-7-fluoro-4-(methylamino)quinoline-3-carboxamide] as the molecule, how does the DC50 read?
**A.** < 100 nM

**Q.** `CNC(=O)c1cnc2ccc(-c3ccc(C(=O)NCCCCNC(=O)COc4cccc5c4C(=O)N(C4CCC(=O)NC4=O)C5=O)cc3)cc2c1Nc1ccccc1` (stereo not drawn) [Compound 340, 4-anilino-6-[4-[4-[[2-[2-(2,6-dioxo-3-piperidyl)-1,3-dioxo-isoindolin-4-yl]oxyacetyl]amino]butylcarbamoyl]phenyl]-N-methyl-quinoline-3-carboxamide] was tested. Which DC50 did it give?
**A.** < 100 nM

**Q.** For `CNC(=O)c1cnc2ccc(CC(=O)NCCCCCCCCNC(=O)COc3cccc4c3C(=O)N(C3CCC(=O)NC3=O)C4=O)cc2c1Nc1ccccc1` (stereo not drawn) [Compound 459, 6-(2-((8-(2-((2-(2,6-dioxopiperidin-3-yl)-1,3-dioxoisoindolin-4-yl)oxy)acetamido)octyl)amino)-2-oxoethyl)-N-methyl-4-(phenylamino)quinoline-3-carboxamide], which DC50 is on record?
**A.** < 100 nM

**Q.** `O=C1CCC(N2C(=O)c3cccc(NCC(O)C(=O)NCCCNC(=O)c4ccc(-c5cc6c(Nc7ccccc7)c(C(=O)NC7CC7)cnc6cc5F)cc4F)c3C2=O)C(=O)N1` (stereo not drawn) [Compound 440, N-cyclopropyl-6-(4-((3-(3-((2-(2,6-dioxopiperidin-3-yl)-1,3-dioxoisoindolin-4-yl)amino)-2-hydroxypropanamido)propyl)carbamoyl)-3-fluorophenyl)-7-fluoro-4-(phenylamino)quinoline-3-carboxamide] was tested. Which DC50 did it give?
**A.** < 100 nM
